# Results from US6436423B1, “Product and method for improving avian health” (Arkion Life Sciences, priority 1998, dated 2002).
# How the values were obtained:
# [1] = tested on: Ross x Hubbard HyY broiler chicks; assay: Example 2: efficacy of AQ applied to the litter used in broiler chicken houses, dose titration (42 day performance); type: in vivo
# Text: The term “weight adjusted feed efficiency” is based upon a feed efficiency corrected to a standard weight called the “weight adjusted feed efficiency” (WAFE). Feed efficiency can be adjusted to a standard weight of 2.00 kg. For every 31.78 grams difference in weight, the feed efficiency can be adjusted by 0.01. For example:
# (§1) A total of 6912 one-day-old straight run Ross x Hubbard HyY broiler chicks was used in the experiment. There were 12 treatments with 8 replicates per treatment and 72 birds per replicate. The individual pen was the experimental unit. The experimental treatments used were as follows:
# 1. Negative Control—No coccidiostat or growth promoting antibiotics—No litter treatment
# 4. No litter treatment—BioCox (half dose)
# 3. 4× AQ litter treatment—No feed additives
# 4. 4× AQ litter treatment—BioCox (half dose)
# 5. 10.0× AQ litter treatment—No feed additives
# 6. 4.0× AQ litter treatment+BioCox (low dose)+BMD+3-Nitro
# 7. 4.0× AQ litter treatment BioCox (low dose)+BMD+3-Nitro
# 8. 10× AQ litter treatment−BioCox (half dose)
# 9. Positive Control BioCox (full dose)+BMD+3-Nitro
# 10. 4× AQ litter treatment−BioCox (full dose)+BMD+3-Nitro
# 11. 10× AQ litter treatment−BioCox (half dose)+BMD+3-Nitro
# 12. 10× AQ litter treatment−BioCox (full dose)+BMD+3-Nitro.
# (§2) 4× Solution of AQ−1 Gallon/44,000sqft×4.2 ml per 48sqft (one pen)
# [2] = tested on: Ross x Hubbard HyY broiler chicks; assay: Example 1: efficacy of AQ applied to the litter used in broiler chicken houses (42 day performance); type: in vivo; details: AQ applied to the litter at the 1.0× dose; full dose and half dose of coccidiostat in the feed
# Text: A total of 3456 one-day-old straight run Ross x Hubbard HyY broiler chicks was used in the experiment. There were 6 treatments with 8 replicates per treatment and 72 birds per replicate. The individual pen was the experimental unit. The experimental treatments used follows:
# 1. Negative Control =No coccidiostat or growth promoting antibiotics and no litter treatment
# 2. Positive Control=BioCox® (full dose)+BMD®+3-Nitro and no litter treatment
# 3. BioCox® (full dose)+BMD®+3-Nitro+0.5× litter treatment*
# 4. BioCox® (full dose)+BMD®+3-Nitro+1.0× AQ litter treatment**
# 5. BioCox® (half dose)+BMD®+3-Nitro+0.5× AQ litter treatment
# 6. BioCox® (half dose)+BMD®+3-Nitro+1.0× AQ litter treatment
# *0.5× Solution of AQ−⅛ Gallon/44,000sqft
# **1.0× Solution of AQ−¼ Gallon/44,000sqfi
# coccidia = assay: Example 2: intestinal lesion scores (intestinal coccidia score); type: in vivo, broiler chicken; details: 14 day data; 10× or 4× AQ dose on litter combined with typically used poultry diets
# Procedure: as §1, §2
# This means that the lesion score difference was greater than 1 unit (scoring range of 0-4).
# [3] = 10× AQ dose on litter combined with typically used poultry diets
# [4] = 10× AQ dose on litter, diet contained no coccidiostat or antibiotic feed additive
smiles,measurement,setting,value
"O=C1c2ccccc2C(=O)c2ccccc21 [AQ, anthraquinone]",feed efficiency compared with the positive control (conclusion),[1]; [3],significantly improved (p<0.05) over the positive control
same,weight gain compared with the positive control (conclusion),[1]; [3],significantly improved (p<0.05) over the positive control
same,feed efficiency compared with the negative control (conclusion),[1]; [4],significant difference between this treatment and the negative control
same,feed efficiency compared with the positive control (conclusion),[1]; [4],no difference from the positive control
same,effect of addition of AQ to the litter on weight gain (conclusion),[1]; dose titration study,tends to improve weight gain numerically
same,effect on feed efficiency (conclusion),[2],improvement in feed efficiency
same,intestinal coccidia score compared with the positive and negative control (conclusion),coccidia,improved significantly (p<0.05) over the positive and negative control
